Measurements taken from US20260109707A1, “HETEROBIFUNCTIONAL COMPOUNDS AND METHODS OF TREATING DISEASE” (Halda Therapeutics OpCo. Inc., priority 2022, published 2026).
Like-named read-outs stand apart in the source and are kept apart here.

Columns and labels:
T47D cells = experiment: Cellular growth inhibition assay for T47D cells (CellTiter-Glo, 72 hours); assay type: cell-based, human; conditions: 72 hours treatment
Procedure, shortened: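 Cells are plated at 3000/well and allowed 24 h before treatment. Test compound in medium containing 0.5% DMSO is then added, with DMSO-only wells as negative control, and plates are incubated 72 h at 37 °C. ATP luminescence (CellTiter-Glo 2.0) is then fitted to four parameters to derive GI50.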

[1] = tested on: T-Rex 293 cell line SC3 cells lacking increased expression of androgen receptor protein; experiment: Cellular growth inhibition assay, T-Rex 293 SC3 cells without doxycycline (CellTiter-Glo, 72 hours); assay type: cell-based; conditions: T-Rex 293 cell line SC3 cells not exposed to doxycycline (lacking increased androgen receptor expression)
Procedure, shortened: (§1)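 Growth inhibition is measured in an inducible AR-expressing T-Rex 293 clone, SC3, cultured with or without 10 ng/mL doxycycline in hormone-depleted medium. Test compounds are applied for 72 hours. GI50 values derive from CellTiter-Glo 2.0 signal fitted by four-parameter regression.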

VCaP cells = experiment: Cellular growth inhibition assay for VCaP cells (CellTiter-Glo, 72 hours); assay type: cell-based, human
Procedure, shortened: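 Luminescent viability signal after 72 h of compound exposure gave GI50 values by four-parameter nonlinear regression. Compounds were added in 0.5% DMSO to cells plated 24 h earlier at 5000/well in DMEM containing 10% FBS.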

[2] = tested on: T-Rex 293 cell line SC3 cells having increased expression of androgen receptor protein due to exposure to doxycycline; experiment: Cellular growth inhibition assay, T-Rex 293 SC3 cells with doxycycline (CellTiter-Glo, 72 hours); assay type: cell-based; conditions: T-Rex 293 SC3 cells with increased androgen receptor expression due to doxycycline (10 ng/mL)
Procedure, shortened: as §1

SMILES | GI50 (T47D cells; Homo sapiens, T47D, 72 h) [nM] | GI50 ([1]; 72 h) [nM] | GI50 (VCaP cells; Homo sapiens, VCaP, 72 h) [nM] | GI50 ([2]; 72 h) [nM] | GI50 [1] [nM] | GI50 (VCaP cells) [nM] | GI50 (T47D cells) [nM] | GI50 [2] [nM]
Cc1sc2c(c1C)C(c1ccc(OC[C@H]3CC[C@@]4(CCCN(c5ccc(C(=O)N[C@H]6CC[C@H](Oc7ccc(C#N)c(Cl)c7)CC6)nn5)C4)C3)nc1)=N[C@@H](Cc1ncco1)c1nnc(C)n1-2 [I-328] | 500 to 1500 | < 500 | < 500 | < 500 |  |  |  | 
Cc1sc2c(c1C)C(c1ccc(O[C@H]3C[C@@]4(CCCN(c5ccc(C(=O)N[C@H]6CC[C@H](Oc7ccc(C#N)c(Cl)c7)CC6)nn5)C4)C3)nc1)=N[C@H](Cc1ncco1)c1nnc(C)n1-2 [I-221] | > 3000 | > 3000 | > 3000 | < 500 |  |  |  | 
CC1=NN=C2C1c1sc(C)c(C)c1C(c1ccc(C#CC3C4CN(c5ccc(C(=O)N[C@H]6CC[C@H](Oc7ccc(C#N)c(Cl)c7)CC6)nn5)CC34)cc1)=N[C@H]2Cc1ncco1 (some centres unmarked) [I-407] | > 3000 | > 3000 | < 500 | > 3000 |  |  |  | 
Cc1sc2c(c1C)C(c1ccc(CC(=O)N3CCC(c4ccc(C(=O)N[C@H]5CC[C@H](Oc6ccc(C#N)c(Cl)c6)CC5)nn4)CC3)cc1)=N[C@H](Cc1ncco1)c1nnc(C)n1-2 [I-331] | 1500 to 3000 | > 3000 | < 500 | > 3000 |  |  |  | 
Cc1sc2c(c1C)C(c1ccc(C[C@H]3C[C@]4(CCCN(c5ccc(C(=O)N[C@H]6CC[C@H](Oc7ccc(C#N)c(Cl)c7)CC6)nn5)C4)C3)cc1)=N[C@@H](C)c1nnc(C)n1-2 [I-352] | > 3000 | > 3000 | < 500 | < 500 |  |  |  | 
Cc1sc2c(c1C)C(c1ccc(C3CC3C3CC4(CCN(c5ccc(C(=O)N[C@H]6CC[C@H](Oc7ccc(C#N)c(Cl)c7)CC6)nn5)CC4)C3)cc1)=N[C@@H](Cc1ncco1)c1nnc(C)n1-2 (some centres unmarked) [I-200] | < 500 | < 500 | < 500 | < 500 |  |  |  | 
CCNC(=O)C[C@@H]1N=C(c2ccc(N3CCN(C4CN(c5ccc(C(=O)N[C@H]6CC[C@H](Oc7ccc(C#N)c(Cl)c7)CC6)nn5)C4)CC3)cc2)c2c(sc(C)c2C)-n2c(C)nnc21 [I-41] | < 500 | 500 to 1500 | < 500 | < 500 |  |  |  | 
Cc1sc2c(c1C)C(c1ccc(OC3CC4(CCN(c5ccc(C(=O)N[C@H]6CC[C@H](Oc7ccc(C#N)c(Cl)c7)CC6)nn5)CC4)C3)cc1)=N[C@@H](Cc1ncco1)c1nnc(C)n1-2 [I-79] | < 500 | < 500 | < 500 | < 500 |  |  |  | 
Cc1sc2c(c1C)C(c1ccc(CC3CN([C@@H]4CCN(c5ccc(C(=O)N[C@H]6CC[C@H](Oc7ccc(C#N)c(Cl)c7)CC6)nn5)C4)C3)cc1)=N[C@@H](Cc1ncco1)c1nnc(C)n1-2 [I-115] | < 500 | < 500 | < 500 | < 500 |  |  |  | 
Cc1sc2c(c1C)C(c1ccc(CCO[C@H]3CCCN(c4ccc(C(=O)N[C@H]5CC[C@H](Oc6ccc(C#N)c(Cl)c6)CC5)nn4)C3)cc1)=N[C@@H](C)c1nnc(C)n1-2 [I-325] | 1500 to 3000 | > 3000 | 1500 to 3000 | < 500 |  |  |  | 
Cc1sc2c(c1C)C(c1ccc(CCC[C@H]3CCCN(c4ccc(C(=O)N[C@H]5CC[C@H](OC6CCC(C#N)C(Cl)C6)CC5)nn4)CC3)cc1)=N[C@@H](Cc1ncco1)c1nnc(C)n1-2 (some centres unmarked) [I-395] | < 500 | < 500 | < 500 | < 500 |  |  |  | 
Cc1sc2c(c1C)C(c1ccc(C(C)(C)N3CCC4(CCCN(c5ccc(C(=O)N[C@H]6CC[C@H](Oc7ccc(C#N)c(Cl)c7)CC6)nn5)C4)C3)cc1)=N[C@@H](Cc1ncco1)c1nnc(C)n1-2 (some centres unmarked) [I-359] | > 3000 | > 3000 | > 3000 | > 3000 |  |  |  | 
Cc1sc2c(c1C)C(c1ccc(OC3CC4(CCN(c5ccc(C(=O)N[C@H]6CC[C@H](Oc7ccc(C#N)c(Cl)c7)CC6)nn5)CC4)C3)nc1)=N[C@@H](C)c1nnc(C)n1-2 [I-433] | 500 to 1500 |  |  | < 500 | 500 to 1500 | > 3000 |  | 
CCNC(=O)C[C@@H]1N=C(c2ccc(OC3CC(OC4CCN(c5ccc(C(=O)N[C@H]6CC[C@H](Oc7ccc(C#N)c(Cl)c7)CC6)nn5)CC4)C3)cc2)c2c(sc(C)c2C)-n2c(C)nnc21 (some centres unmarked) [I-37] | < 500 | < 500 | < 500 | < 500 |  |  |  | 
Cc1sc2c(c1C)C(c1ccc(C(=O)N3CCN(Cc4ccc(C(=O)N[C@H]5CC[C@H](Oc6ccc(C#N)c(Cl)c6)CC5)nn4)CC3)cc1)=N[C@H](Cc1ncco1)c1nnc(C)n1-2 [I-291] | > 3000 | > 3000 | > 3000 | < 500 |  |  |  | 
Cc1sc2c(c1C)C(c1ccc(N3CCC[C@H](C(=O)N4CCC[C@@H](c5ccc(C(=O)N[C@H]6CC[C@H](Oc7ccc(C#N)c(Cl)c7)CC6)nn5)C4)C3)cc1)=N[C@@H](Cc1ncco1)c1nnc(C)n1-2 [I-302] | < 500 | < 500 | 500 to 1500 | < 500 |  |  |  | 
Cc1sc2c(c1C)C(c1ccc(N3CC4(CCN(c5ccc(C(=O)NC6CCC(Oc7ccc(C#N)c(Cl)c7)CC6)nn5)CC4)C3)cc1)=N[C@@H](Cc1ncco1)c1nnc(C)n1-2 (stereo partly drawn) [I-132, N-[4-(3-chloro-4-cyano-phenoxy)cyclohexyl]-6-[2-[4-[(9S)-4,5,13-trimethyl-9-(oxazol-2-ylmethyl)-3-thia-1,8,11,12-tetrazatricyclo[8.3.0.02,6]trideca-2(6),4,7,10,12-pentaen-7-yl]phenyl]-2,7-diazaspiro[3.5]nonan-7-yl]pyridazine-3-carboxamide] | < 500 | < 500 | < 500 | < 500 |  |  |  | 
Cc1sc2c(c1C)C(c1ccc(N3CCC[C@H](C(=O)NCc4ccc(C(=O)N[C@H]5CC[C@H](Oc6ccc(C#N)c(Cl)c6)CC5)nn4)C3)cc1)=N[C@@H](Cc1ncco1)c1nnc(C)n1-2 [I-294] | < 500 | > 3000 | < 500 | < 500 |  |  |  | 
Cc1sc2c(c1C)C(c1ccc([C@H]3CC[C@@]4(C3)CN(c3ccc(C(=O)N[C@H]5CC[C@H](Oc6ccc(C#N)c(Cl)c6)CC5)nn3)CCO4)cc1)=N[C@@H](Cc1ncco1)c1nnc(C)n1-2 [I-364] | < 500 | > 3000 | < 500 | < 500 |  |  |  | 
Cc1sc2c(c1C)C(c1ccc(O[C@@H]3CC[C@@]4(CCCN(c5ccc(C(=O)N[C@H]6CC[C@H](Oc7ccc(C#N)c(Cl)c7)CC6)nn5)C4)C3)nc1)=N[C@@H](Cc1ncco1)c1nnc(C)n1-2 [I-287] |  |  |  |  | < 500 | < 500 | 500 to 1500 | < 500
Cc1sc2c(c1C)C(c1ccc(N3CCC(C(=O)NCc4ccc(C(=O)N[C@H]5CC[C@H](Oc6ccc(C#N)c(Cl)c6)CC5)nn4)CC3)cc1)=N[C@@H](Cc1ncco1)c1nnc(C)n1-2 [I-292] | < 500 | 500 to 1500 | < 500 | < 500 |  |  |  | 
Cc1sc2c(c1C)C(c1ccc(CC[C@H]3C[C@@]4(CCCN(c5ccc(C(=O)N[C@H]6CC[C@H](Oc7ccc(C#N)c(Cl)c7)CC6)nn5)C4)C3)nc1)=N[C@@H](Cc1ncco1)c1nnc(C)n1-2 [I-207] | < 500 | < 500 | < 500 | < 500 |  |  |  | 
Cc1sc2c(c1C)C(c1ccc(CCCC3CCCN(c4ccc(C(=O)N[C@H]5CC[C@H](OC6CCC(C#N)C(Cl)C6)CC5)nn4)CC3)cc1)=N[C@@H](Cc1ncco1)c1nnc(C)n1-2 (some centres unmarked) [I-396] | < 500 | < 500 | < 500 | < 500 |  |  |  | 
CCNC(=O)C[C@@H]1N=C(c2ccc(CN3CC4CN(c5ccc(C(=O)N[C@H]6CC[C@H](Oc7ccc(C#N)c(Cl)c7)CC6)nn5)CC4C3)cc2)c2c(sc(C)c2C)-n2c(C)nnc21 (some centres unmarked) [I-32] | 500 to 1500 | 1500 to 3000 | < 500 | < 500 |  |  |  | 
Cc1sc2c(c1C)C(c1ccc(CC[C@H]3C[C@]4(CCCN(c5ccc(C(=O)N[C@H]6CC[C@H](Oc7ccc(C#N)c(Cl)c7)CC6)nn5)C4)C3)cc1)=N[C@@H](C)c1nnc(C)n1-2 [I-327] |  |  |  |  | > 3000 | > 3000 | 1500 to 3000 | < 500
Cc1sc2c(c1C)C(c1ccc(CN(C)C(=O)CN(C)c3ccc(C(=O)N[C@H]4CC[C@H](Oc5ccc(C#N)c(Cl)c5)CC4)nn3)cc1)=N[C@@H](Cc1ncco1)c1nnc(C)n1-2 [I-299] | 1500 to 3000 | > 3000 | < 500 | 1500 to 3000 |  |  |  | 
Cc1sc2c(c1C)C(c1ccc(C[C@H]3C[C@H]([C@H]4CCCN(c5ccc(C(=O)N[C@H]6CC[C@H](Oc7ccc(C#N)c(Cl)c7)CC6)nn5)C4)C3)cc1)=N[C@@H](Cc1ncco1)c1nnc(C)n1-2 [I-131] | 500 to 1500 | < 500 | < 500 | < 500 |  |  |  | 
Cc1sc2c(c1C)C(c1ccc([C@H]3C[C@H]([C@@H]4CCCN(c5ccc(C(=O)N[C@H]6CC[C@H](Oc7ccc(C#N)c(Cl)c7)CC6)nn5)C4)C3)cc1)=N[C@@H](Cc1ncco1)c1nnc(C)n1-2 [I-377] | < 500 | < 500 | < 500 | < 500 |  |  |  | 
Cc1sc2c(c1C)C(c1ccc(OC3CC4(CCN(c5ccc(C(=O)N[C@H]6CC[C@H](Oc7ccc(C#N)c(Cl)c7)CC6)nn5)CC4)C3)cc1)=NC1(CC1)c1nnc(C)n1-2 [I-417] | 500 to 1500 | > 3000 | > 3000 | < 500 |  |  |  | 
